In ChEMBL document CHEMBL4613212, “Insights of synthetic analogues of anti-leprosy agents” (Bioorg Med Chem, 2019):
Converted amounts (≈) assume the structure as drawn.

Tests used:
Assay type in all cases: functional
[1] = system: Mycobacterium tuberculosis; experiment: Antimycobacterial activity against Mycobacterium tuberculosis H37Rv by BACTEC radiometric growth assay
[2] = system: Mycolicibacterium smegmatis; experiment: Antimycobacterial activity against DDS sensitive Mycobacterium smegmatis ATCC 607 […]
[3] = system: Mycolicibacterium smegmatis; experiment: Antimicrobial activity against Mycobacterium smegmatis ATCC 607
[4] = system: Mycobacterium tuberculosis; experiment: Antitubercular activity against Mycobacterium tuberculosis infected in mouse assessed as reduction in microbial load at 2 to 3 mg ip, pretreated for 48 to 72 hrs followed by microbial infection and subsequent compound dosing at 48 to 72 hrs post-infection measured 24 to 32 days post-infection relative to control; parameters: scale not given: the % may be the effect or the level left
[5] = system: Mycolicibacterium smegmatis; experiment: Antimycobacterial activity against DDS resistant Mycobacterium smegmatis ATCC 607 […]
[6] = system: Mycobacterium tuberculosis; experiment: Antitubercular activity against Mycobacterium tuberculosis H37Rv ATCC 27294 assessed as growth inhibition at 6.25 ug/ml by microplate alamar blue assay relative to control

Compound	MIC [1] [µg/mL]	MIC [2] [µg/mL]	also measured
C=C/C(C)=C/[C@@]1(C)SC(=O)C(C)=C1O [THIOLACTOMYCIN]	25 (≈ 119 µM)		
CCCCCCCC/C=C/S(=O)(=O)CC(N)=O	12.5 (≈ 47.8 µM)		
Nc1cccc(S(=O)(=O)c2cccc(N)c2)c1		806 (≈ 3250 µM)	
CNc1ccc(S(=O)(=O)c2ccc(N)cc2)cc1		37.3 (≈ 142 µM)	
OC[C@H]1O[C@@H](n2cnc3c(-c4ccns4)ncnc32)[C@H](O)[C@@H]1O			MIC ([3]; Mycolicibacterium smegmatis, ATCC 607, read-out: MIC): 3 µM (≈ 1.01 µg/mL)
Oc1c2cc(-c3ccccc3)cc1Cc1cc(-c3ccccc3)cc(c1O)Cc1cc(-c3ccccc3)cc(c1O)Cc1cc(-c3ccccc3)cc(c1O)Cc1cc(-c3ccccc3)cc(c1O)Cc1cc(-c3ccccc3)cc(c1O)Cc1cc(-c3ccccc3)cc(c1O)Cc1cc(-c3ccccc3)cc(c1O)C2			Activity [4]: 20 - 50%
Nc1ccc(S(=O)(=O)c2ccc(NO)cc2)cc1 [4-AMINO-4'-HYDROXAMINE-DIPHENYLSULPHONE]		18.1 (≈ 68.5 µM)	MIC [5]: 3000 µg/mL (≈ 11400 µM)
CCCCCCCCCCP(=O)([O-])CCC(N)=O.[K+]	> 50		
O=S(=O)(O)c1cc2c(O)c(c1)Cc1cc(S(=O)(=O)O)cc(c1O)Cc1cc(S(=O)(=O)O)cc(c1O)Cc1cc(S(=O)(=O)O)cc(c1O)Cc1cc(S(=O)(=O)O)cc(c1O)Cc1cc(S(=O)(=O)O)cc(c1O)Cc1cc(S(=O)(=O)O)cc(c1O)Cc1cc(S(=O)(=O)O)cc(c1O)C2			Activity [4]: 50 - 80%
CCN(CC)c1ccc(S(=O)(=O)c2ccc(N)cc2)cc1		> 164	
CC(C)(C)c1cc2c(O)c(c1)Cc1cc(C(C)(C)C)cc(c1OCCOCCOCCOCCOCCOCCO)Cc1cc(C(C)(C)C)cc(c1O)Cc1cc(C(C)(C)C)cc(c1OCCOCCOCCOCCOCCOCCO)Cc1cc(C(C)(C)C)cc(c1O)Cc1cc(C(C)(C)C)cc(c1OCCOCCOCCOCCOCCOCCO)C2			Activity [4]: 20 - 50%
CCCCCC/C=C/S(=O)(=O)CC(N)=O	12.5 (≈ 53.6 µM)		
CCCCCCCCC[S@@+]([O-])CC(N)=O	25 (≈ 107 µM)		
Nc1ccc(S(=O)(=O)c2ccc(Br)cc2)cc1		319 (≈ 1020 µM)	
OC[C@H]1O[C@@H](n2cnc3c(-c4cccs4)ncnc32)[C@H](O)[C@@H]1O			inhibition at 6.25 µg/mL [6]: 6%
Nc1ccc(S(=O)(=O)c2ccc([N+](=O)[O-])cc2)cc1		34.4 (≈ 124 µM)	MIC [5]: > 1200 µg/mL
O=S(=O)(c1ccc(O)cc1)c1ccc(O)cc1		400 (≈ 1600 µM)	
CCCCCCCCCCS(=O)(=O)C(C)C(N)=O (stereo not given)	> 25		
NC(=O)c1cnccn1 [PYRAZINAMIDE]	100 (≈ 812 µM)		
CC(C)CCCCCCCS(=O)(=O)CC(N)=O	1.5 (≈ 5.69 µM)		

Compound	MIC [1] [µg/mL]	MIC [2] [µg/mL]	also measured
Nc1ccc(S(=O)(=O)c2ccccc2N)cc1		44.2 (≈ 178 µM)	
CC[C@@H](CO)NCCN[C@@H](CC)CO [ETHAMBUTOL]	2 (≈ 9.79 µM)		
Nc1ccc(S(=O)(=O)c2ccc(F)cc2)cc1		95 (≈ 378 µM)	MIC [5]: > 1800 µg/mL
C.CCCCCCCCC[S+]([O-])CC(=O)OC (racemic)	> 25		
CCCCCCCC[S+]([O-])CC(=O)O (stereo not given)	> 25		
Cl.OC[C@H]1O[C@@H](n2cnc3c(-c4cccs4)ncnc32)[C@H](O)[C@@H]1O			MIC [3]: 0.4 µM
CCCCCCCCS(=O)(=O)NS(C)(=O)=O	> 25		
CCNc1ccc(S(=O)(=O)c2ccc(N)cc2)cc1		54.4 (≈ 197 µM)	
CCCCCN(CCCCC)c1ccc(S(=O)(=O)c2ccc(N)cc2)cc1		> 257	
CCCCCNc1ccc(S(=O)(=O)c2ccc(N)cc2)cc1		377 (≈ 1180 µM)	MIC [5]: > 500 µg/mL
CCOCCOCCS(=O)(=O)CC(N)=O	> 25		
OC[C@H]1O[C@@H](n2cnc3c(-c4ccco4)ncnc32)[C@H](O)[C@@H]1O			inhibition at 6.25 µg/mL [6]: 0%
CCCCCCCC[S+]([O-])CC(=O)OCc1ccccc1 (stereo not given)	6.25 (≈ 20.1 µM)		
CCCCCCCCS(=O)(=O)NS(N)(=O)=O	> 25		
Nc1ccc(S(=O)(=O)c2ccc(NCCO)cc2)cc1		13.7 (≈ 46.9 µM)	MIC [5]: 2500 µg/mL (≈ 8550 µM)
NC(=O)CS(=O)(=O)CCCCc1ccccc1	> 25		
COC(=O)CNc1ccc(S(=O)(=O)c2ccc(N)cc2)cc1		32.8 (≈ 102 µM)	MIC [5]: > 800 µg/mL
CC(=O)Nc1ccc(S(=O)(=O)c2ccc(NC(C)=O)cn2)cc1	12.5 (≈ 37.5 µM)		
O.OC[C@H]1O[C@@H](n2cnc3c(-c4cccs4)ncnc32)[C@H](O)[C@@H]1O			MIC [3]: 1.75 µM
